Data on 21 compounds can be found in PubChem BioAssay AID330 (DTP/NCI, 2004).

Where “and” joins values, the source holds several entries; their conditions need not be identical. Equal values may be shown once. Toxic doses and inconclusive results are not listed.

For the experiment, the system named is P388 leukemia ip, CD2F1 mice, survival T/C. Briefly: NCI In Vivo Anticancer Drug Screen. Data for tumor model P388 Leukemia (intraperitoneal) in CD2F1 (CDF1) mice. To be noted: endpoint: median survival time, higher = longer survival. The procedure, abridged:
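Mice carrying the transplanted tumor received test compound or vehicle. Survival was recorded in each group, and the value is the treated-group measurement divided by that of the vehicle-treated control group.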

Setting [1] is: dose: 60.0 mg/kg/injection, schedule: Q01DX005 (ip), vehicle: saline with Tween-80.
The mark [2] stands for this setting: dose: 120.0 mg/kg/injection, schedule: Q01DX005 (ip), vehicle: saline with Tween-80.
The mark [3] stands for this setting: dose: 240.0 mg/kg/injection, schedule: Q01DX005 (ip), vehicle: saline with Tween-80.
Where [4] appears, read: dose: 50.0 mg/kg/injection, schedule: Q01DX009 (ip), vehicle: saline with Tween-80.
Where [5] appears, read: dose: 100.0 mg/kg/injection, schedule: Q01DX009 (ip), vehicle: saline with Tween-80.
Where [6] appears, read: dose: 50.0 mg/kg/injection, schedule: Q01DX005 (ip), vehicle: Klucel (hydroxypropylcellulose) (HPC).
Setting [7] is: dose: 100.0 mg/kg/injection, schedule: Q01DX005 (ip), vehicle: Klucel (hydroxypropylcellulose) (HPC).
[8] abbreviates: dose: 200.0 mg/kg/injection, schedule: Q01DX005 (ip), vehicle: Klucel (hydroxypropylcellulose) (HPC).
The mark [9] stands for this setting: dose: 60.0 mg/kg/injection, schedule: Q01DX005 (ip), vehicle: saline.
Where [10] appears, read: dose: 120.0 mg/kg/injection, schedule: Q01DX005 (ip), vehicle: saline.

On to `O=C(O)/C=N/NS(=O)(=O)c1ccc2ccccc2c1`, for which the T/C was 161 % of control and 164 % of control (dose: 50.0 mg/kg/injection, schedule: Q01DX009 (ip), vehicle: other); 153 % of control (dose: 200.0 mg/kg/injection, schedule: Q01DX009 (ip), vehicle: other).

Turning to `C=C1C(=O)OC2C/C(C)=C/CC/C(C)=C/CCC3(C)OC3CC12` (stereo not drawn), the T/C reads like this: (dose: 4.0 mg/kg/injection, schedule: Q01DX009 (ip), vehicle: Klucel (hydroxypropylcellulose) (HPC)) 104 % of control; (dose: 8.0 mg/kg/injection, schedule: Q01DX009 (ip), vehicle: Klucel (hydroxypropylcellulose) (HPC)) 104 % of control; (dose: 16.0 mg/kg/injection, schedule: Q01DX009 (ip), vehicle: Klucel (hydroxypropylcellulose) (HPC)) 108 % of control; (dose: 32.0 mg/kg/injection, schedule: Q01DX009 (ip), vehicle: Klucel (hydroxypropylcellulose) (HPC)) 105 % of control.

Regarding `O=[N+]([O-])c1ccc(C(Cl)Cc2ccc(Cl)cc2)cc1` (stereo not drawn), the T/C under setting [1] is 102 % of control, the T/C under setting [2] is 90 % of control and the T/C under setting [3] is 94 % of control.

`CCOC(=O)C1CSC(c2ccccc2)=N1` (stereo not drawn): the T/C runs as follows: under setting [1], 109 % of control; under setting [2], 111 % of control; under setting [3], 111 % of control.

Regarding `CCO/C(C)=N/NC(=O)c1n[nH]c2ccccc12`, the T/C reads like this: (dose: 50.0 mg/kg/injection, schedule: Q01DX005 (ip), vehicle: saline with Tween-80) 92 % of control; (dose: 100.0 mg/kg/injection, schedule: Q01DX005 (ip), vehicle: saline with Tween-80) 91 % of control; (dose: 200.0 mg/kg/injection, schedule: Q01DX005 (ip), vehicle: saline with Tween-80) 90 % of control.

On to `CN1N=Cc2sc(Br)c(Br)c2B1O`, for which the T/C reads like this: under setting [4], 94 % of control; under setting [5], 101 % of control; (dose: 200.0 mg/kg/injection, schedule: Q01DX009 (ip), vehicle: saline with Tween-80) 94 % of control.

As for `CN(C)c1ccc(/C=N/NC(N)=S)nc1`, the T/C (dose: 50.0 mg/kg/injection, schedule: Q04DX003 (ip), vehicle: saline with Tween-80) was 150 % of control.

Take `O=S=C(c1ccccc1)N1CCc2ccccc21`: the T/C is 97 % of control (dose: 25.0 mg/kg/injection, schedule: Q01DX009 (ip), vehicle: saline); 97 % of control (dose: 50.0 mg/kg/injection, schedule: Q01DX009 (ip), vehicle: saline); 89 % of control (dose: 100.0 mg/kg/injection, schedule: Q01DX009 (ip), vehicle: saline).

Consider `CC(=O)Nc1cc2cc(NS(=O)(=O)c3cc(C(F)(F)F)cc(C(F)(F)F)c3)ccc2oc1=O`, for which the T/C by setting is: (dose: 1.5 mg/kg/injection, schedule: Q01DX005 (ip), vehicle: Klucel + Tween-80) 94 % of control; (dose: 3.0 mg/kg/injection, schedule: Q01DX005 (ip), vehicle: Klucel + Tween-80) 99 % of control and 91 % of control; (dose: 6.0 mg/kg/injection, schedule: Q01DX005 (ip), vehicle: Klucel + Tween-80) 96 % of control; (dose: 12.0 mg/kg/injection, schedule: Q01DX005 (ip), vehicle: Klucel + Tween-80) 91 % of control; (dose: 12.5 mg/kg/injection, schedule: Q01DX005 (ip), vehicle: Klucel + Tween-80) 87 % of control; (dose: 50.0 mg/kg/injection, schedule: Q01DX005 (ip), vehicle: Klucel + Tween-80) 95 % of control.

`CCCCCC1OC1CC1OC1CCCCCCCC(=O)OC` (stereo not drawn): the T/C under setting [6] is 96 % of control, the T/C under setting [7] is 96 % of control and the T/C under setting [8] is 104 % of control.

Consider `COc1cc(OC)c(NC(=O)Nc2cc(Cl)ccc2Cl)cc1Cl`, for which the T/C is 94 % of control under setting [4] and 91 % of control under setting [5].

For `COc1cccc2c1C(=O)c1c(O)c3c(c(O)c1C2=O)C[C@@](O)(C(=O)COC(=O)Cc1cccc2ccccc12)C[C@@H]3OC1CC(N)C(O)C(C)O1` (stereo partly drawn), the T/C is 164 % of control (dose: 0.5 mg/kg/injection, schedule: Q01DX009 (ip), vehicle: other); 169 % of control (dose: 0.5 mg/kg/injection, schedule: Q01DX009 (ip), vehicle: saline with Tween-80); 107 % of control (dose: 0.5 mg/kg/injection, schedule: Q01DX009 (ip), vehicle: saline); 157 % of control (dose: 0.78 mg/kg/injection, schedule: Q01DX009 (ip), vehicle: other); 156 % of control (dose: 1.0 mg/kg/injection, schedule: Q01DX009 (ip), vehicle: other); 183 % of control (dose: 1.0 mg/kg/injection, schedule: Q01DX009 (ip), vehicle: saline with Tween-80). Besides, the T/C (dose: 1.0 mg/kg/injection, schedule: Q01DX009 (ip), vehicle: saline) was 121 % of control; the T/C (dose: 1.56 mg/kg/injection, schedule: Q01DX009 (ip), vehicle: other) is 190 % of control; the T/C (dose: 2.0 mg/kg/injection, schedule: Q01DX009 (ip), vehicle: other) was 170 % of control; the T/C (dose: 2.0 mg/kg/injection, schedule: Q01DX009 (ip), vehicle: saline with Tween-80) was 231 % of control; the T/C (dose: 2.0 mg/kg/injection, schedule: Q01DX009 (ip), vehicle: saline) was 124 % of control; the T/C (dose: 3.13 mg/kg/injection, schedule: Q01DX009 (ip), vehicle: other) is 245 % of control. Moreover, the T/C (dose: 4.0 mg/kg/injection, schedule: Q01DX009 (ip), vehicle: other) is 113 % of control; the T/C (dose: 4.0 mg/kg/injection, schedule: Q01DX009 (ip), vehicle: saline with Tween-80) is 161 % of control and 277 % of control; the T/C (dose: 4.0 mg/kg/injection, schedule: Q01DX009 (ip), vehicle: saline) is 122 % of control; the T/C (dose: 8.0 mg/kg/injection, schedule: Q01DX009 (ip), vehicle: saline with Tween-80) was 100 % of control; the T/C (dose: 16.0 mg/kg/injection, schedule: Q01DX009 (ip), vehicle: saline with Tween-80) is 99 % of control.

For `CCCCCCCCCCC(OC(C)=O)C1CCC(C2CCC(C(O)CCCCCCCCCCCCC3C=C(C)OC3=O)O2)O1` (stereo not drawn), the T/C is 111 % of control (dose: 0.25 mg/kg/injection, schedule: Q01DX005 (ip), vehicle: water) and 124 % of control (dose: 0.5 mg/kg/injection, schedule: Q01DX005 (ip), vehicle: water).

As for `CC([NH-])C[NH-].CC([NH-])C[NH-].CC([NH-])C[NH-].[Co]` (stereo not drawn), the T/C was 91 % of control (dose: 12.5 mg/kg/injection, schedule: Q04DX003 (ip), vehicle: water); 94 % of control (dose: 25.0 mg/kg/injection, schedule: Q04DX003 (ip), vehicle: water); 94 % of control (dose: 50.0 mg/kg/injection, schedule: Q04DX003 (ip), vehicle: water); 90 % of control (dose: 100.0 mg/kg/injection, schedule: Q04DX003 (ip), vehicle: water).

With `CCC(C)C1SCC(=O)N1c1nncs1` (stereo not drawn), the T/C was 104 % of control under setting [1], 100 % of control under setting [2] and 107 % of control under setting [3].

In the case of `COc1ccc(CCNC(=O)c2sc3ccccc3c2Cl)cc1OC`, the T/C is 88 % of control under setting [6], 91 % of control under setting [7] and 99 % of control under setting [8].

For `CCc1nc2c(cnn2C)c(=O)n1-c1ccccc1Cl`, the T/C by setting is: under setting [6], 100 % of control; under setting [7], 100 % of control; under setting [8], 102 % of control.

As to `COC(=O)c1nc(=S)[nH]c(C(=O)OC)c1C(=O)c1cccnc1`, the T/C is 108 % of control under setting [9] and 110 % of control under setting [10].

As for `CC(=O)O[C@H]1CC[C@@]2(C)C(CC[C@]3(C)C2CC=C2[C@@H]4CC(C)(C)CC[C@]4(C(=O)NCCN(C)C)CCC23C)C1(C)C` (stereo partly drawn), the T/C by setting is: (dose: 7.5 mg/kg/injection, schedule: Q01DX005 (ip), vehicle: saline with Tween-80) 99 % of control; (dose: 15.0 mg/kg/injection, schedule: Q01DX005 (ip), vehicle: saline with Tween-80) 100 % of control; (dose: 30.0 mg/kg/injection, schedule: Q01DX005 (ip), vehicle: saline with Tween-80) 99 % of control; under setting [1], 103 % of control.

With `[CH3][Sn]([CH3])([S]CCS(=O)(=O)O)[S]CCS(=O)(=O)O`, the T/C runs as follows: (dose: 15.0 mg/kg/injection, schedule: Q01DX005 (ip), vehicle: saline) 120 % of control; (dose: 30.0 mg/kg/injection, schedule: Q01DX005 (ip), vehicle: saline) 98 % of control; under setting [9], 107 % of control; under setting [10], 121 % of control.

For `Cn1c2ccc(F)cc2c(=O)c2c(O)cc3c(c21)C=CC(C)(C)O3`, the T/C under setting [6] is 100 % of control, the T/C under setting [7] is 102 % of control and the T/C under setting [8] was 94 % of control.
